Test results reported in patent US11208416B2, “Selective inhibitors of protein arginine methytransterase 5 (PRMT5)” (Prelude Therapeutics, Incorporated, priority 2017, dated 2021).

How the values were obtained:
[1] = tested on: Symmetric Di-Methyl Arginine (sDMA); experiment: Western blot for sDMA marks in Granta cells (enzyme inhibition IC50); format: cell-based; conditions: Homo sapiens, 72 h; Granta-519 cell line, 3 days
[2] = tested on: Granta-519 cells; experiment: Cell proliferation assay on Granta-519 cells (CCK-8); format: cell-based; conditions: Homo sapiens, 240 h; Granta-519 cell line, day 10; read-out: Prolif. IC50
Description: Cell Proliferation Assay to Determine IC50 on Granta-519 Cells
Granta-519 cells were maintained in PRMI 1640 (Corning Cellgro, Catalog #: 10-040-CV) medium supplemented with 10% v/v FBS (GE Healthcare, Catalog #: SH30910.03). Compounds were dissolved in DMSO to make 10 mM stocks and stored at −20° C. Nine-point, 3-fold serial dilutions were made with DMSO with top concentration at 1 mM (working stocks).
On day of experiment, compound working stocks were further diluted at 1:50 with fresh medium in 96 well plate, and 10 μL of diluted drugs were added to a new 96 well plate for proliferation assay. Cells growing at exponential phase were spun down at 1500 rpm for 4 min and resuspend in fresh medium to reach a density of 0.5×10^6 cells/ml. 200 ul of cells were added to 96 well plate containing diluted drugs and incubated for 3 days. DMSO was used a vehicle control.
One day 3, 10 μL of Cell Counting Kit-8 (CCK-8, Jojindo, CK04-13) solution was added to a new 96 well plate. […] Plates were incubated in CO2 incubator for 2 hours and OD450 values were measured with a microplate reader (iMark microplate reader, Bio-Rad). […]
Percentage of viable cells, relative to DMSO vehicle control, were calculated and plotted in Graphpad Prism ([Inhibitor] vs. normalized response−Variable slope) to determine proliferation IC50 values on day 10.

[3] = target: PRMT5/MEP50 complex (Homo sapiens (Human), UniProt O14744); experiment: Biochemical assay, PRMT5/MEP50 methylation of histone H2A with 3H-SAM; conditions: histone H2A 5 μM, PRMT5/MEP50 5 nM
Description: Biochemical Assay Protocol
Compounds were solubilized and 3-fold diluted in 100% DMSO. […] Standard reactions were performed in a total volume of […] assay buffer, with histone H2A (5 μM final) as substrate. To this was added the PRMT5/MEP50 complex diluted to provide a final assay concentration of 5 nM and the compounds were allowed to preincubate for 15 to 20 minutes at room temperature. The reaction was initiated by adding S-[3H-methyl]-adenosyl-L-methionine (PerkinElmer) to final concentration of […]. Following a 60 minutes incubation at 30° C., the reaction was stopped by adding 100 μL of 20% TCA. Each reaction was spotted onto filter plate (MultiScreen FB Filter Plate, Millipore), and washed 5 times with PBS buffer, Scintillation fluid was added to the filter plate and read in a scintillation counter. IC50 values were determined by fitting the data to the standard 4 parameters with Hill Slope using GraphPad Prism software.

[4] = tested on: sDMA; experiment: sDMA levels in tumor samples of Granta-519 mouse xenograft (Western blot); format: in vivo; conditions: 50 mg/kg orally QD
Description: Granta-519 cells was maintained in DMEM medium supplemented with 10% fetal bovine serum and 2 mM L-Glutamine at 37° C. in an atmosphere of 5% CO2 in air. Cells in exponential growth phase were harvested and 1×10^7 cells in 0.1 mL of PBS with Matrigel (1:1) were injected subcutaneously at the right lower flank region of each mouse for tumor development. The treatments were started when the mean tumor size reaches approximately 300-400 mm^3. […] Example 47 or vehicle (0.5% Na CMC+0.5% Tween80, suspension) were administered orally (QD for Example 47, QD for vehicle) at a dose of 30 mg/kg and 50 mg/kg for 19 and 16 days, respectively. Body weights and tumor size were measured every 3 to 4 days after randomization. Animals were euthanized 12 hours after last dosing, and blood and tumor samples were collected for analysis.
To measure sDMA levels in tumor samples, tumors from each mouse were weighted and homogenized in RIPA buffer supplemented with protease inhibitor (cOmplete™ EDTA-free Protease Inhibitor Cocktail, Roche). Lysate were centrifuged at 14,000 rpm for 30 min at 4° C. to remove debris. Total protein concentrations of lysate were determined by BCA assay (ThermoFisher Scientific, Catalog #: 23225). Equal amount of total proteins from each tumor were separated on SDS-PAGE gel, and sDMA levels were determined by WB as described previously.

Sequence of PRMT5/MEP50 complex (O14744 whole entry): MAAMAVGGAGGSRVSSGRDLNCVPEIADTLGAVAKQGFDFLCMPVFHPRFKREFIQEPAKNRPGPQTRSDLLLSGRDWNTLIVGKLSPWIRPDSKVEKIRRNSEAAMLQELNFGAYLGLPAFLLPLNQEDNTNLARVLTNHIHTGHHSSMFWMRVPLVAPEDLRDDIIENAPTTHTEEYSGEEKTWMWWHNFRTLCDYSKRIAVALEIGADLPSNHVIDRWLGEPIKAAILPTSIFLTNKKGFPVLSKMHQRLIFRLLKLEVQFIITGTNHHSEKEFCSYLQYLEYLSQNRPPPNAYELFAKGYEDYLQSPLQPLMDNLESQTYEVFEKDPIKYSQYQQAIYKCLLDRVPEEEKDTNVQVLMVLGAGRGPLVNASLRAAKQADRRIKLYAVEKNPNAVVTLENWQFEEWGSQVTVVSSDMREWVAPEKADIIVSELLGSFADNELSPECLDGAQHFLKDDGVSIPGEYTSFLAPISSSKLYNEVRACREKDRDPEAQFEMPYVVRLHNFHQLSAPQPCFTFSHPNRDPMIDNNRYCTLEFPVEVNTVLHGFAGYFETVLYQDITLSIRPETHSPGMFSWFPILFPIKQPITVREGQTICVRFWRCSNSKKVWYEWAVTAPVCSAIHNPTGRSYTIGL
Sequence of PRMT5/MEP50 complex (Q9BQA1 whole entry partner): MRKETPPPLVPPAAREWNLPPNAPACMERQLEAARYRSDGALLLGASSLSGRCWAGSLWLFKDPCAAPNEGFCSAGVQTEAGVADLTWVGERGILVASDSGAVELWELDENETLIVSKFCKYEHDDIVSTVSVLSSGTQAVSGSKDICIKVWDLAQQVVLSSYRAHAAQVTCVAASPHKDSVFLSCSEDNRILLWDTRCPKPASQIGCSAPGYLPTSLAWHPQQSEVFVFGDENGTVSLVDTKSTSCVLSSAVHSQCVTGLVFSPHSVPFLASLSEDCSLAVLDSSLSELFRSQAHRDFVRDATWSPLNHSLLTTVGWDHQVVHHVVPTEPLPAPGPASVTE

Compound | IC50 [1] [nM] | IC50 [2] [nM] | IC50 [3] [nM] | sDMA level in tumor [4]
CSC[C@H]1O[C@@H](n2ccc3c(N)ncnc32)[C@H](O)[C@]1(C)O [Example 17, (2S,3S,4R,5R)-5-(4-amino-7H-pyrrolo[2,3-d]pyrimidin-7-yl)-3-methyl-2-((methylthio)methyl)tetrahydrofuran-3,4-diol] | 1000 | 200000 | 900 | 
C[C@@]1(O)[C@@H]([C@H](O)c2ccc(Cl)c(Cl)c2)O[C@@H](n2ccc3c(N)ncnc32)[C@@H]1O [Example 47, (2R,3S,4R,5R)-5-(4-amino-7H-pyrrolo[2,3-d]pyrimidin-7-yl)-2-((R)-(3,4-dichlorophenyl)(hydroxy)methyl)-3-methyltetrahydrofuran-3,4-diol] |  |  |  | no detectable sDMA
Cc1ncnc2c1ccn2[C@@H]1O[C@H](Cc2ccc(Cl)cc2CO)[C@@](C)(O)[C@H]1O [Example 64, (2R,3S,4R,5R)-2-[[4-chloro-2-(hydroxymethyl)phenyl]methyl]-3-methyl-5-(4-methylpyrrolo[2,3-d]pyrimidin-7-yl)tetrahydrofuran-3,4-diol] |  |  | 1610 | 
